# Results from ChEMBL document CHEMBL4251572, “Novel aminopyrimidinyl benzimidazoles as potentially antimicrobial agents: Design, synthesis and biological evaluation” (Eur J Med Chem, 2018).
# Assays:
# Pichia norvegensis = assay: Antifungal against Candida mycoderma after 24 hrs by two fold serial dilution method; type: functional
# Escherichia coli [1] = assay: Antibacterial activity against Escherichia coli JM109 after 24 hrs by micro broth dilution assay; type: functional; settings: JM109, 24 h
# Staphylococcus aureus [2] = assay: Antibacterial activity against Staphylococcus aureus ATCC 25923 incubated for 24 hrs followed by plating onto tryptic soy agar medium and measured after 24 hrs; type: functional; settings: ATCC 25923, 24 h
# Escherichia coli [3] = assay: Antibacterial activity against Escherichia coli DH52 after 24 hrs by micro broth dilution assay; type: functional; settings: DH52, 24 h
# Micrococcus luteus = assay: Antibacterial activity against Micrococcus luteus ATCC4698 after 24 hrs by micro broth dilution assay; type: functional; settings: ATCC4698, 24 h
# Bacillus = assay: Antibacterial activity against Bacillus proteus ATCC 13315 after 24 hrs by micro broth dilution assay; type: functional; settings: ATCC 13315, 24 h
# Staphylococcus aureus [4] = assay: Antibacterial activity against methicillin-resistant Staphylococcus aureus N315 incubated for 24 hrs followed by plating onto tryptic soy agar medium and measured after 24 hrs; type: functional; settings: N315, 24 h
# Staphylococcus aureus [5] = assay: Antibacterial activity against Staphylococcus aureus ATCC 25923 after 24 hrs by micro broth dilution assay; type: functional; settings: ATCC 25923, 24 h
# Bacillus subtilis = assay: Antibacterial activity against Bacillus subtilis after 24 hrs by micro broth dilution assay; type: functional
# Cyberlindnera jadinii = assay: Antifungal against Candida utilis after 24 hrs by two fold serial dilution method; type: functional; settings: Williopsis jadinii
# Pseudomonas aeruginosa [6] = assay: Antibacterial activity against Pseudomonas aeruginosa after 24 hrs by micro broth dilution assay; type: functional
# Staphylococcus aureus [7] = assay: Antibacterial activity against methicillin-resistant Staphylococcus aureus N315 after 24 hrs by micro broth dilution assay; type: functional; settings: N315, 24 h
# Aspergillus flavus = assay: Antifungal against Aspergillus flavus after 24 hrs by two fold serial dilution method; type: functional
# Pseudomonas aeruginosa [8] = assay: Antibacterial activity against Pseudomonas aeruginosa incubated for 24 hrs followed by plating onto tryptic soy agar medium and measured after 24 hrs; type: functional
# Saccharomyces cerevisiae = assay: Antifungal against Saccharomyces cerevisiae after 24 hrs by two fold serial dilution method; type: functional
# Shigella dysenteriae = assay: Antibacterial activity against Shigella dysenteriae after 24 hrs by micro broth dilution assay; type: functional
# Staphylococcus aureus [9] = assay: Ratio of MBC for methicillin-resistant Staphylococcus aureus N315 to MIC for methicillin-resistant Staphylococcus aureus N315; type: functional
# Candida albicans = assay: Antifungal against Candida albicans ATCC 76615 after 24 hrs by two fold serial dilution method; type: functional; settings: ATCC 76615, 24 h
# Pseudomonas aeruginosa [10] = assay: Ratio of MBC for Pseudomonas aeruginosa to MIC for Pseudomonas aeruginosa; type: functional
# Salmonella typhi = assay: Antibacterial activity against Bacillus typhi after 24 hrs by micro broth dilution assay; type: functional, Salmonella enterica subsp. enterica serovar Typhi; settings: Salmonella enterica
# Staphylococcus aureus [11] = assay: Ratio of MBC for Staphylococcus aureus ATCC 25923 to MIC for Staphylococcus aureus ATCC 25923; type: functional
SMILES,MIC (Pichia norvegensis) [µg/mL],MIC (Escherichia coli [1]) [µg/mL],MBC (Staphylococcus aureus [2]) [µg/mL],MIC (Escherichia coli [3]) [µg/mL],MIC (Micrococcus luteus) [µg/mL],MIC (Bacillus) [µg/mL],MBC (Staphylococcus aureus [4]) [µg/mL],MIC (Staphylococcus aureus [5]) [µg/mL],MIC (Bacillus subtilis) [µg/mL],MIC (Cyberlindnera jadinii) [µg/mL],MIC (Pseudomonas aeruginosa [6]) [µg/mL],MIC (Staphylococcus aureus [7]) [µg/mL],MIC (Aspergillus flavus) [µg/mL],MBC (Pseudomonas aeruginosa [8]) [µg/mL],MIC (Saccharomyces cerevisiae) [µg/mL],MIC (Shigella dysenteriae) [µg/mL],Ratio (Staphylococcus aureus [9]),MIC (Candida albicans) [µg/mL],MIC (Salmonella typhi) [µg/mL],Ratio (Staphylococcus aureus [11]),also measured
CCCCCCCn1c(-c2cc(-c3ccc(C)cc3)nc(N)n2)nc2ccccc21,512,16,> 512,4,8,256,32,512,512,32,4,32,512,4,4,4,1,32,2,–,Ratio (Pseudomonas aeruginosa [10]): 1
CCCCCCn1c(-c2cc(-c3ccc(Cl)cc3)nc(N)n2)nc2ccccc21,8,16,512,2,2,256,32,256,128,8,512,32,32,> 512,512,64,1,4,128,2,–
CCCCCCCn1c(-c2cc(-c3ccc(Cl)cc3Cl)nc(N)n2)nc2ccccc21,256,512,512,32,16,512,> 512,256,256,128,64,512,256,128,128,128,–,4,32,2,Ratio (Pseudomonas aeruginosa [10]): 2
Nc1nc(-c2nc3ccccc3[nH]2)cc(-c2ccc(Cl)cc2Cl)n1,2,64,8,16,1,1,16,8,8,2,32,8,8,64,8,16,2,1,16,1,Ratio (Pseudomonas aeruginosa [10]): 2
CCCCn1c(-c2cc(-c3ccc(Cl)cc3)nc(N)n2)nc2ccccc21,4,64,16,128,64,4,64,16,64,2,64,32,256,512,128,256,2,64,8,1,Ratio (Pseudomonas aeruginosa [10]): 8
CCCCn1c(-c2cc(-c3ccc(F)cc3)nc(N)n2)nc2ccccc21,8,256,256,8,512,64,> 512,128,1,8,512,256,512,> 512,32,8,–,512,8,2,–
CCCCn1c(-c2cc(-c3ccc(C)cc3)nc(N)n2)nc2ccccc21,8,16,32,32,16,16,16,8,16,4,8,16,64,16,32,16,1,128,32,4,–
CCCCCCCCn1c(C(=O)/C=C/c2ccc(Cl)cc2Cl)nc2ccccc21,512,256,–,512,512,512,–,512,512,512,512,64,512,–,512,512,–,512,512,–,–
